Patent US20080293775A1, “Substituted Diphenylethers, -Amines, -Sulfides and -Methanes for the Treatment of Respiratory Disease” (ASTRAZENECA AB, priority 2005, published 2008)

Target: T1, rhCRTh2 (Homo sapiens, UniProt Q9Y5Y4)
T1 construct: expressed in transfected cells; host or cells: HEK cells (membrane preparation)
T1 sequence (Q9Y5Y4 1-395): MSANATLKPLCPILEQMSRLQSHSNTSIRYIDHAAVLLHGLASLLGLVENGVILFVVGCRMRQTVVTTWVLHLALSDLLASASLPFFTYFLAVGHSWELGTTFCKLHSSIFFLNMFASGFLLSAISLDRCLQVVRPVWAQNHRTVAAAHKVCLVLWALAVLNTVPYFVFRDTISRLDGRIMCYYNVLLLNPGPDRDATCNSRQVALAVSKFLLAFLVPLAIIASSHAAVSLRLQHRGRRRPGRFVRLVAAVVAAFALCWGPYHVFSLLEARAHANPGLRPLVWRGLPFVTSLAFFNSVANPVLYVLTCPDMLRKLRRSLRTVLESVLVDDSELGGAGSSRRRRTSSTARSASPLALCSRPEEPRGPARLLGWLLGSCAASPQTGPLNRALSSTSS
Experiment: Ligand binding assay ([3H]PGD2, SPA beads, HEK cell membranes)
Conditions: [3H]PGD2 binding to membranes of HEK cells expressing rhCRTh2/Gα16, SPA, 2 hours at RT; read-out: pIC50 value (converted)
Procedure: [^3H]PGD2 was purchased from Perkin Elmer Life Sciences with a specific activity of 100-210 Ci/mmol. All other chemicals were of analytical grade.
HEK cells expressing rhCRTh2/Gα16 were routinely maintained in DMEM containing 10% Foetal Bovine Serum (HyClone), 1 mg/ml geneticin, 2 mM L-glutamine and 1% non-essential amino acids. For the preparation of membranes, the adherent transfected HEK cells were grown to confluence in two layer tissue culture factories (Fisher, catalogue number TKT-170-070E). Maximal levels of receptor expression were induced by addition of […] sodium butyrate for the last 18 hours of culture. The adherent cells were washed once with phosphate buffered saline (PBS, 50 ml per cell factory) and detached by the addition of 50 ml per cell factory of ice-cold membrane homogenisation buffer [20 mM HEPES (pH 7.4), 0.1 mM dithiothreitol, 1 mM EDTA, 0.1M phenyl methyl sulphonyl fluoride and 100 μg/ml bacitracin]. Cells were pelleted by centrifugation at 220×g for 10 minutes at 4° C., re-suspended in half the original volume of fresh membrane homogenisation buffer and disrupted using a Polytron homogeniser for 2×20 second bursts keeping the tube in ice at all times. […] The final pellet was re-suspended in 4 ml of membrane homogenisation buffer per cell factory used and the protein content determined. […]
All assays were performed in Corning clear bottomed, white 96-well NBS plates (Fisher). […] (The optimum coating concentrations were determined for each batch of membranes) The beads were pelleted by centrifugation (800×g for 7 minutes at 4° C.), washed once with assay buffer (50 mM HEPES pH 7.4 containing 5 mM magnesium chloride) and finally re-suspended in assay buffer at a bead concentration of 10 mg/ml. […]
Compounds and DK-PGD2 were dissolved in DMSO and diluted in the same solvent to 100× the required final concentration. […] The assay plate was incubated at RT for 2 hours and counted on a Wallac Microbeta liquid scintillation counter (1 minute per well).

Row | IC50 | Compound
1 | 158 nM | CS(=O)(=O)c1ccc(Sc2cc(Cl)ccc2OCc2nnn[nH]2)c(Cl)c1 [Example 4]
2 | 158 nM | CC(=O)NS(=O)(=O)Cc1ccc(Cl)cc1Oc1ccc(S(C)(=O)=O)cc1Cl [Example 6, N-({4-chloro-2-[2-chloro-4-(methylsulfonyl)phenoxy]benzyl}sulfonyl)acetamide]
3 | 141 nM | CS(=O)(=O)NC(=O)Cc1ccc(Cl)c(Oc2ccc(S(C)(=O)=O)cc2Cl)c1 [Example 9, 2-{4-chloro-3-[2-chloro-4-(methylsulfonyl)phenoxy]phenyl}-N-(methylsulfonyl)acetamide]
